Laboratory results reported in US9266921B2, “PGC-1α-modulating peptides” (Lipotec, S.A., priority 2011, dated 2016).

Key:
[1] = system: subcutaneous human pre-adipocytes; assay: Accumulation of lipids in subcutaneous human pre-adipocytes (AdipoRed); type: cell-based; conditions: peptide 0.1 mg/mL in PDM-2, 10 days, PGM-2 = 0%, PDM-2 = 100%
Method: The levels of accumulation of lipids in subcutaneous human pre-adipocytes were quantified using the AdipoRed™ (Lonza) reagent. 100,000 cells were cultivated per well in PGM™-2 medium at a final volume of 100 μL. After 24 hours, the differentiation from pre-adipocytes to mature adipocytes was induced changing the medium to PDM-2 in the presence of the different peptides at 0.1 mg/mL. After 10 days of treatment with the peptides in differentiation medium, the quantity of intracellular lipids was evaluated using the AdipoRed™ reagent following the manufacturer's instructions measuring the fluorescence of the samples (length of the excitation wave 485 nm and emission 535 nm) after adding the AdipoRed™ reagent. The fluorescence values were corrected with regards to the basal fluorescence and were normalized with regards to the maximum differentiation controls (PDM-2 medium, maximum accumulation of lipids) and minimum differentiation (PGM™-2 medium, minimum accumulation of lipids).

human PGC-1α promoter = assay: Modulation of the human PGC-1α promoter activity (luciferase reporter, Hep G2); type: cell-based; conditions: Hep G2 transfected with luciferase under human PGC-1α promoter; peptide 0.5 mg/mL, 24 hours; normalized to carrier = 100%
Method: The modulation capacity of the promoter of human PGC-1α is evaluated by the peptides in the invention in the hepatocellular Hep G2 carcinoma cell line transfected with the luciferase gene under the regulation of the human PGC-1α promoter. The cells are seeded at a density of 20,000 cells/25 cm^2 plate) and incubated for 24 hours in RPMI-1640 complete medium, after which the peptides of the invention are added at 0.5 mg/mL and are incubated for another 24 hours. The RPMI-1640 complete medium (carrier) is used as a negative control. The measurement of the promoter's activity is carried out using the Steady-Glo® Luciferase Assay System (PROMEGA) kit following the manufacturer's instructions. The luminescence values are read on a luminometer […] and the activity of the promoter is determined, which is normalized with regards to the values of the negative control.

PGC-1α gene = assay: Transcription of the PGC-1α gene, quantitative real time PCR in differentiating pre-adipocytes; type: cell-based; conditions: subcutaneous human adipocytes; peptide 0.1 mg/mL in PDM-2, 10 days; PGM-2 = 0%, PDM-2 = 100%
Method: The expression levels of the gene PGC-1α are measured by PCR in quantitative real time. A cell line of subcutaneous human pre-adipocytes is incubated in PGM™-2 medium at a density of 100,000 cells/well in a volume of 100 μL for 24 hours. Differentiation is induced by changing the medium to PDM-2 in the presence of the peptides Ac-L-Ser-L-Ile-L-Tyr-L-Val-L-Ala-L-Thr-NH2 (Ac-SEQ ID NO. 1-NH2) and Ac-L-Ser-L-Val-L-Val-L-Val-L-Arg-L-Thr-NH2 (Ac-SEQ ID NO. 2-NH2) at 0.1 mg/mL for 10 days, after which the cells were lysed and the RNA is extracted. The PCR is carried out in quantitative real time using the Taqman® Gene Expression Cells-to-CT (Applied Biosystems) kit according to the manufacturer's instructions and with the appropriate probes (TaqMan® Hs01016719_m1 probe for the PGC-1α gene and Taqman® Hs99999901_s1 probe for the eukaryotic ribosomal subunit 18S, the endogenous control of expression) and the values are normalized with regards to the maximum differentiation controls (PDM-2 medium, maximum quantity of PGC-1α mRNA) and minimal differentiation (PGM™-2 medium, minimum quantity of PGC-1α mRNA).

cellulitis (thigh) = assay: Reduction of cellulitis in volunteers, length of the dermo-hypodermic junction line (ultrasound); type: in vivo, human; conditions: after 21 days of treatment
Text: 20 Caucasian volunteers between the age of 25 and 45, with healthy skin and affected by cellulitis levels I-III according to the pinch test applied the composition from Example 15 to one thigh and a placebo composition (the same composition from Example 15 without the peptide) to the other thigh, twice a day for 21 days. The length of the dermo-hypodermic junction line was instrumentally assessed using the Ultrasound Scanner Dermascan C® (Cortex Technology, Denmark) at the beginning of the study and at the end of the study (21 days). The measurement of the length of the dermo-hypodermic junction line is related to the formation of cellulitis and skin irregularities [Quatresooz P et al., “Cellulite histopathology and related mechanobiology”, (2006), Int. J. Cosm. Sci., 28, 207-210]. A reduction in the length of the dermo-hypodermic junction line leads to softer and more regular skin, and as such cellulitis will be less visible. The statistical analysis of the evolution of the parameters measured during the study was carried out using the Student's t-test. The statistical significance threshold was established at 5%.

breasts = assay: Volume of the breasts in volunteers (Fast Optical In Vivo Topometry); set-up: species or system human; conditions: treatment up to 56 days
Text: 22 Caucasian volunteers between the age of 25 and 40, with healthy skin and a bra size of between 36 C to 40 E applied the composition from Example 16 to one breast and a placebo composition (the same composition from Example 16 without the peptide) to the other breast, twice a day for 56 days. The volume of the breasts was instrumentally assessed at the beginning of the study, after 14 days and 28 days of applying the compositions and at the end of the study (56 days) using the Fast Optical In Vivo Topometry Technique, which enables the volume of the breasts to be calculated in mm^3. The volume of the breasts was normalized initially at an arbitrary value of 100,000 mm^3 and the changes in volume of the breasts was measured at the different treatment times in relation to their initial volume. The statistical analysis of the evolution of the parameters measured during the study was carried out using the Student's t-test or the Wilcoxon test. The statistical significance threshold was established at 5%.

| Substance | % Accumulation of intracellular lipids [1] [%] | Activity of the PGC-1α promoter (%) (human PGC-1α promoter) | % relative quantity of PGC-1α mRNA (PGC-1α gene) [%] | effect on the length of the dermo-hypodermic junction line and cellulitis (cellulitis (thigh)) | effect on the volume of the breasts (breasts) |
| --- | --- | --- | --- | --- | --- |
| Ac-L-His-L-Ile-L-Val-L-Val-Gly-L-Thr-NH2 (Ac-HIVVGT-NH2) [Ac-SEQ ID NO. 21-NH2] | 114 | 110 | – | – | – |
| Ac-L-His-L-Val-L-Tyr-L-Val-L-Arg-L-Thr-NH2 (Ac-HVYVRT-NH2) [Ac-SEQ ID NO. 12-NH2] | 84 | 114 | – | – | – |
| Ac-L-Ser-L-Ile-L-Tyr-L-Val-L-Ala-L-Thr-NH2 (Ac-SIYVAT-NH2) [Ac-SEQ ID NO. 1-NH2] | 33 | 57 | 63 | induces a reduction in the length of the dermo-hypodermic junction line | – |
| Ac-L-Ser-L-Ile-L-Tyr-L-Val-L-Arg-L-Thr-NH2 (Ac-SIYVRT-NH2) [Ac-SEQ ID NO. 11-NH2] | 76 | 151 | – | – | – |
| Ac-L-Ser-L-Ile-L-Val-L-Val-Gly-L-Thr-NH2 (Ac-SIVVGT-NH2) [Ac-SEQ ID NO. 22-NH2] | 43 | 63 | – | – | – |
| Ac-L-Ser-L-Ile-L-Val-L-Val-Gly-L-Val-NH2 (Ac-SIVVGV-NH2) [Ac-SEQ ID NO. 46-NH2] | 38 | 78 | – | – | – |
| Ac-L-Ser-L-Val-L-Tyr-L-Val-L-Ala-L-Thr-NH2 (Ac-SVYVAT-NH2) [Ac-SEQ ID NO. 5-NH2] | 48 | 69 | – | – | – |
| Ac-L-Ser-L-Val-L-Tyr-L-Val-L-Arg-L-Thr-NH2 (Ac-SVYVRT-NH2) [Ac-SEQ ID NO. 13-NH2] | 79 | 131 | – | – | – |
| Ac-L-Ser-L-Val-L-Val-L-Val-Gly-L-Val-NH2 (Ac-SVVVGV-NH2) [Ac-SEQ ID NO. 48-NH2] | 37 | 75 | – | – | – |
| Ac-L-Ser-L-Val-L-Val-L-Val-L-Ala-L-Val-NH2 (Ac-SVVVAV-NH2) [Ac-SEQ ID NO. 32-NH2] | – | 82 | – | – | – |
| Ac-L-Ser-L-Val-L-Val-L-Val-L-Arg-L-Thr-NH2 (Ac-SVVVRT-NH2) [Ac-SEQ ID NO. 2-NH2] | 128 | 114 | 125 | – | induces an increase in the volume of the breasts |
| Ac-L-Ser-L-Val-L-Val-L-Val-L-Arg-L-Val-NH2 (Ac-SVVVRV-NH2) [Ac-SEQ ID NO. 40-NH2] | – | 141 | – | – | – |
